Values of other authors, collected in US20090054381A1, “METHODS FOR TREATING RESPIRATORY DISORDERS” (NitroMed, Inc., priority 2005, published 2009).
Where a name gives a salt, the structure may show the parent alone.

Row | solubility in alcohol (alcohol) | solubility in ether (ether) | Structure (SMILES) | solubility in organic solvents (organic solvents such as ethanol, ether and chloroform) | solubility in water
1 | – | – | O=[N+]([O-])O[C@H]1CO[C@H]2[C@@H]1OC[C@H]2O[N+](=O)[O-] [Diluted isosorbide dinitrate, 1,4,3,6-dianhydro-D-glucitol-2,5-dinitrate] | freely soluble | sparingly soluble
2 | slightly soluble | very slightly soluble | NNc1nncc2ccccc12 [Hydralazine hydrochloride, hydralazine hydrochloride] | – | soluble
